# ChEMBL document CHEMBL4052759, “Discovery of DS79182026: A potent orally active hepcidin production inhibitor” (Bioorg Med Chem Lett, 2017)
# Tests used:
# [1] = species: Homo sapiens; assay: Inhibition of PKA (unknown origin) at 0.078 uM relative to control
# [2] = target: T1, cGMP-dependent protein kinase 1 (Homo sapiens) (UniProt Q13976); assay: Inhibition of PKG-alpha (unknown origin) at 0.078 uM relative to control
# T1 sequence (whole entry): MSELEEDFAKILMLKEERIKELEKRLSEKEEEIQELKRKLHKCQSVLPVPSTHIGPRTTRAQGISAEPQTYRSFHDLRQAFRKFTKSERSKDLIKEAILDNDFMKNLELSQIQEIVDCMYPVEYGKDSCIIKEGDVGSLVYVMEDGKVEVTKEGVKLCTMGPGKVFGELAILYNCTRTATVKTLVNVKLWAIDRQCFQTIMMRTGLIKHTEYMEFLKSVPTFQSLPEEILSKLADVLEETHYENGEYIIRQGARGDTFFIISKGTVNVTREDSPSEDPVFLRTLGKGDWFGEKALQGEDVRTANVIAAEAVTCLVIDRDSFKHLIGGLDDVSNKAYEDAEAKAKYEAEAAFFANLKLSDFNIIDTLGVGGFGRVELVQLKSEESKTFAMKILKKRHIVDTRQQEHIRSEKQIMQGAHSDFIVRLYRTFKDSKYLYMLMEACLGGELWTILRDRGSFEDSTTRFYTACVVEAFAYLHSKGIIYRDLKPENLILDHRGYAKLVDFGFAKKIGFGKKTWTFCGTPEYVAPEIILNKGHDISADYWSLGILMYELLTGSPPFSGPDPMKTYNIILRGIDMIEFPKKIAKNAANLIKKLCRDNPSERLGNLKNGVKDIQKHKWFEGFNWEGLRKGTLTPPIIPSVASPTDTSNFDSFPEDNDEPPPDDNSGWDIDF
# [3] = target: Ephrin type-B receptor 4 (Homo sapiens) (UniProt P54760); assay: Inhibition of EPHB4 (unknown origin) at 0.49 uM relative to control
# [4] = target: Protein kinase C epsilon type (Homo sapiens) (UniProt Q02156); assay: Inhibition of PKC-epsilon (unknown origin) at 0.49 uM relative to control
# [5] = target: T2, Cyclin-dependent kinase 1/cyclin B1 (Homo sapiens) (UniProt P06493+P14635); assay: Inhibition of CDK1/Cycline B1 (unknown origin) at 0.49 uM relative to control; format: protein-complex assay
# [6] = target: Mitogen-activated protein kinase 1 (Homo sapiens) (UniProt P28482); assay: Inhibition of Erk2 (unknown origin) at 0.49 uM relative to control
# [7] = target: Dual specificity protein kinase CLK3 (Homo sapiens) (UniProt P49761); assay: Inhibition of CLK3 (unknown origin) at 0.49 uM relative to control
# [8] = target: Tyrosine-protein kinase Fes/Fps (Homo sapiens) (UniProt P07332); assay: Inhibition of FES (unknown origin) at 0.49 uM relative to control
# [9] = test system: Tyrosine-protein kinase ABL1 (Homo sapiens), P00519 [T315I]; assay: Inhibition of Abl T315I mutant (unknown origin) at 0.49 uM relative to control
# [10] = test system: Mast/stem cell growth factor receptor Kit (Homo sapiens), P10721 [T670I]; assay: Inhibition of KIT T670I mutant (unknown origin) at 0.49 uM relative to control
# [11] = target: Mitogen-activated protein kinase 13 (Homo sapiens) (UniProt O15264); assay: Inhibition of p38-delta (unknown origin) at 0.45 uM relative to control
# [12] = target: Serine/threonine-protein kinase 24 (Homo sapiens) (UniProt Q9Y6E0); assay: Inhibition of MST3 (unknown origin) at 0.45 uM relative to control
# [13] = target: T2, Cyclin-dependent kinase 1/cyclin B1 (Homo sapiens); assay: Inhibition of CDK1/CyclinB (unknown origin) at 0.45 uM relative to control; format: protein-complex assay
# [14] = target: Hepatocyte growth factor receptor (Homo sapiens) (UniProt P08581); assay: Inhibition of MET (unknown origin) at 0.45 uM relative to control
# [15] = target: Protein kinase C alpha (Homo sapiens) (UniProt P17252); assay: Inhibition of PKC-alpha (unknown origin) at 0.45 uM relative to control
# [16] = target: ALK tyrosine kinase receptor (Homo sapiens) (UniProt Q9UM73); assay: Inhibition of ALK (unknown origin) at 0.45 uM relative to control
# [17] = target: T3, Aurora kinase A (Homo sapiens) (UniProt O14965); assay: Inhibition of AurA (unknown origin) at 0.45 uM relative to control
# T3 sequence (whole entry): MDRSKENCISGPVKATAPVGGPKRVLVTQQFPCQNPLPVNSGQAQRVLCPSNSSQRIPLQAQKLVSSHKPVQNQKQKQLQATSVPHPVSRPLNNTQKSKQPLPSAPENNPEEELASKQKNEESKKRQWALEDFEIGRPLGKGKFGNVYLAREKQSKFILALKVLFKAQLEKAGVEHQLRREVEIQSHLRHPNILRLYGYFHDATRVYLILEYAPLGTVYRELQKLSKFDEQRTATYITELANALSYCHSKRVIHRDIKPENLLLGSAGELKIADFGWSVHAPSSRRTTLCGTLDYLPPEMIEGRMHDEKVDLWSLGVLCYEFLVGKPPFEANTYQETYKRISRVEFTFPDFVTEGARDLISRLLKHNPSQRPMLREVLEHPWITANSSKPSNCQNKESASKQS
# [18] = target: Dual specificity tyrosine-phosphorylation-regulated kinase 1B (Homo sapiens) (UniProt Q9Y463); assay: Inhibition of DYRK1B (unknown origin) at 0.45 uM relative to control
# [19] = target: Ephrin type-A receptor 8 (Homo sapiens) (UniProt P29322); assay: Inhibition of EPHA8 (unknown origin) at 0.45 uM relative to control
# [20] = target: Serine/threonine-protein kinase 10 (Homo sapiens) (UniProt O94804); assay: Inhibition of LOK (unknown origin) at 0.45 uM relative to control
# [21] = target: T4, Serine/threonine-protein kinase Sgk1 (Homo sapiens) (UniProt O00141); assay: Inhibition of SGK1 (unknown origin) at 0.45 uM relative to control
# T4 sequence (whole entry): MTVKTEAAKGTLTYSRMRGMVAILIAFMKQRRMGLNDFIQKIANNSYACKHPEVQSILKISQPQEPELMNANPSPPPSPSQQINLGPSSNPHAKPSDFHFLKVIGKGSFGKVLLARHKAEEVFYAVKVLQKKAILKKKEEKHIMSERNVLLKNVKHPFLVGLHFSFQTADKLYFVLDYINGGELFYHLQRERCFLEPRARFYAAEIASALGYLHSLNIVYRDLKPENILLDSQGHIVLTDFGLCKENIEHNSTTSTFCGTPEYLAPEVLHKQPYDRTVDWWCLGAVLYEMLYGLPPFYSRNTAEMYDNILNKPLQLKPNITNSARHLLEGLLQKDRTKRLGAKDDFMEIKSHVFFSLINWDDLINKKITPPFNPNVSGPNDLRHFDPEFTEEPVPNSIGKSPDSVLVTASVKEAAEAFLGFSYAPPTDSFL
# [22] = target: Cyclin-dependent kinase 5/CDK5 activator 1 (Homo sapiens) (UniProt Q00535+Q15078); assay: Inhibition of CDK5/p25 (unknown origin) at 0.45 uM relative to control; format: protein-complex assay
smiles,measurement,setting,value
COC(=O)Nc1noc2cc(-c3c(-c4ccccn4)n[nH]c3C)ccc12,inhibition,[1],-2.3%
same,inhibition,[2],-3.3%
Cc1[nH]nc(C2CC2)c1-c1ccc2c(NC(=O)C3CC3)noc2c1,inhibition,[3],1.7%
same,inhibition,[4],4.7%
same,inhibition,[5],20%
same,inhibition,[6],-0.3%
same,inhibition,[7],0.7%
same,inhibition,[8],-5.3%
same,inhibition,[9],11%
same,inhibition,[10],-1.7%
Cc1n[nH]c(C)c1-c1ccc2c(NC(=O)c3ccc(N4CCN(C)CC4)cc3)n[nH]c2c1,inhibition,[11],4.3%
same,inhibition,[12],44.7%
same,inhibition,[13],5.3%
same,inhibition,[14],5.7%
same,inhibition,[15],13.7%
same,inhibition,[16],26%
same,inhibition,[17],7%
same,inhibition,[18],19.7%
same,inhibition,[19],3.7%
same,inhibition,[20],9.3%
same,inhibition,[21],2.3%
same,inhibition,[22],0.3%
